Consider 14 molecules from patent US20090270379A1, “QUINOLONE DERIVATIVES USEFUL AS ANTIBACTERIAL AGENTS” (priority 2008, published 2009).

Common to all, as to type: cell-based
Test [1] concerns Streptococcus pneumoniae ATCC 49619. Put plainly: In vitro antibacterial activity (MIC), microdilution broth method, strain E. The note with it: ATCC49619, 35° C., 16-20 hours. The protocol: (§1) Minimal inhibitory concentration (MIC) is an indicator of in vitro antibacterial activity. […] The in vitro antimicrobial activity of representative compounds of the present invention was determined by the microdilution broth method following the test method from the National Committee for Clinical Laboratory Standards (NCCLS). This method is described in the NCCLS Document M7-A4, Vol. 17, No. 2, “Methods for Dilution Antimicrobial Susceptibility Test for Bacteria that Grow Aerobically—Fourth Edition”, which is incorporated herein by reference.
(§2) In this method two-fold serial dilutions of drug in cation adjusted Mueller-Hinton broth were added to wells in microdilution trays. The test organisms were prepared by adjusting the turbidity of actively growing broth cultures so that the final concentration of test organism after it is added to the wells was approximately 5×10^4 CFU/well. Following inoculation of the microdilution trays, the trays were incubated at 35° C. for 16-20 hours and then read. The amount of growth in the wells containing the test compound was compared with the amount of growth in the growth-control wells (no test compound) used in each tray.
(§3) Representative compounds of the present invention were tested against a variety of pathogenic bacteria with results as listed in Table 3, below.
A general note: In broth dilution the organism is exposed to a series of concentrations in liquid medium.

The test system of test [2] is Staphylococcus aureus OC4172. Put plainly: In vitro antibacterial activity (MIC), microdilution broth method, strain A. The note with it: cation adjusted Mueller-Hinton broth, 35° C., 16-20 hours. The protocol:
as §1, §2, §3

The subject of test [3] is strain D, fluoroquinolone-resistant clinical isolate of Streptococcus pneumoniae. Description: In vitro antibacterial activity (MIC), microdilution broth method, strain D. The note with it: read-out: MIC (μg/mL) D. The protocol: as §1, §2, §3
The test system of test [4] is strain B, fluoroquinolone-resistant clinical isolate of Streptococcus pneumoniae. Description: In vitro antibacterial activity (MIC), microdilution broth method, strain B. The note with it: read-out: MIC (μg/mL) B. The protocol: as §1, §2, §3
In test [5] the test system is strain C, fluoroquinolone-resistant clinical isolate of Streptococcus pneumoniae. Put plainly: In vitro antibacterial activity (MIC), microdilution broth method, strain C. The note with it: read-out: MIC (μg/mL) C. The protocol: as §1, §2, §3

≈ marks a conversion by molar mass, not a printed value.

Turning to `COc1c(-c2cc3n(c2)C[C@H](C)N[C@@H]3C)c(F)cc2c(=O)c(C(=O)O)cn(C3CC3)c12` [Compound 18, 1-Cyclopropyl-7-(1R,3S-dimethyl-1,2,3,4-tetrahydro-pyrrolo[1,2-a]pyrazin-7-yl)-6-fluoro-8-methoxy-4-oxo-1,4-dihydro-quinoline-3-carboxylic acid], the MIC in test [1] worked out at 1 µg/mL (≈ 2.35 µM); in test [2], 0.12 µg/mL (≈ 0.282 µM); in test [3], 16 µg/mL (≈ 37.6 µM); in test [4], 2 µg/mL (≈ 4.7 µM); in test [5] it was 8 µg/mL (≈ 18.8 µM).
On to `C[C@H]1Cn2cc(-c3cc4c(cc3F)c(=O)c(C(=O)O)cn4C3CC3)cc2CN1` [Compound 19, 1-Cyclopropyl-6-fluoro-7-(3S-methyl-1,2,3,4-tetrahydro-pyrrolo[1,2-a]pyrazin-7-yl)-4-oxo-1,4-dihydro-quinoline-3-carboxylic acid], for which the MIC in test [1] was 0.5 µg/mL (≈ 1.31 µM); in test [2], 0.06 µg/mL (≈ 0.157 µM); in test [3], more than 16 µg/mL; in test [4], 2 µg/mL (≈ 5.24 µM); in test [5] it was 4 µg/mL (≈ 10.5 µM).
In the case of `C[C@H]1Cn2cc(-c3cc4c(cc3F)c(=O)c(C(=O)O)cn4C3CC3)cc2CN1C` [Compound 20, 1-Cyclopropyl-7-(2,3S-dimethyl-1,2,3,4-tetrahydro-pyrrolo[1,2-a]pyrazin-7-yl)-6-fluoro-4-oxo-1,4-dihydro-quinoline-3-carboxylic acid], the MIC in test [1] was 1 µg/mL (≈ 2.53 µM); in test [2], 0.5 µg/mL (≈ 1.26 µM); in test [3], more than 16 µg/mL; in test [4], 4 µg/mL (≈ 10.1 µM); in test [5], 16 µg/mL (≈ 40.5 µM).
The matching figures for `C[C@@H]1NCCn2cc(-c3cc4c(cc3F)c(=O)c(C(=O)O)cn4C3CC3)cc21` [Compound 21, 1-Cyclopropyl-6-fluoro-7-(1S-methyl-1,2,3,4-tetrahydro-pyrrolo[1,2-a]pyrazin-7-yl)-4-oxo-1,4-dihydro-quinoline-3-carboxylic acid]: 1 µg/mL (≈ 2.62 µM), 0.25 µg/mL (≈ 0.655 µM), 16 µg/mL (≈ 41.9 µM), 4 µg/mL (≈ 10.5 µM) and 16 µg/mL (≈ 41.9 µM).
As for `C[C@H]1NCCn2cc(-c3cc4c(cc3F)c(=O)c(C(=O)O)cn4C3CC3)cc21` [Compound 22, 1-Cyclopropyl-6-fluoro-7-(1R-methyl-1,2,3,4-tetrahydro-pyrrolo[1,2-a]pyrazin-7-yl)-4-oxo-1,4-dihydro-quinoline-3-carboxylic acid], the MIC in test [1] was 1 µg/mL (≈ 2.62 µM); in test [2] it was 0.25 µg/mL (≈ 0.655 µM); in test [3], more than 16 µg/mL; in test [4] it was 4 µg/mL (≈ 10.5 µM); in test [5] it was 16 µg/mL (≈ 41.9 µM).
Regarding `C[C@H]1Cn2cc(-c3c(F)cc4c(=O)c(C(=O)O)cn5c4c3OC[C@@H]5C)cc2CN1` [Compound 23, 8-Fluoro-3S-methyl-9-(3S-methyl-1,2,3,4-tetrahydro-pyrrolo[1,2-a]pyrazin-7-yl)-6-oxo-2,3-dihydro-6H-1-oxa-3a-aza-phenalene-5-carboxylic acid], the MIC in test [1] was found to be 1 µg/mL (≈ 2.52 µM); in test [2], 0.25 µg/mL (≈ 0.629 µM); in test [3], 16 µg/mL (≈ 40.3 µM); in test [4], 4 µg/mL (≈ 10.1 µM); in test [5] it was 8 µg/mL (≈ 20.1 µM).
Turning to `C[C@@H]1NCCn2cc(-c3c(F)cc4c(=O)c(C(=O)O)cn5c4c3OC[C@@H]5C)cc21` [Compound 24, 8-Fluoro-3S-methyl-9-(1S-methyl-1,2,3,4-tetrahydro-pyrrolo[1,2-a]pyrazin-7-yl)-6-oxo-2,3-dihydro-6H-1-oxa-3a-aza-phenalene-5-carboxylic acid], the MIC in test [1] was found to be 1 µg/mL (≈ 2.52 µM); in test [2] it was 0.25 µg/mL (≈ 0.629 µM); in test [3] it was 16 µg/mL (≈ 40.3 µM); in test [4] it was 4 µg/mL (≈ 10.1 µM); in test [5], 8 µg/mL (≈ 20.1 µM).
Take `C[C@H]1Cn2cc(-c3nc4c(cc3F)c(=O)c(C(=O)O)cn4C3CC3)cc2CN1` [Compound 25, 1-Cyclopropyl-6-fluoro-7-(3S-methyl-1,2,3,4-tetrahydro-pyrrolo[1,2-a]pyrazin-7-yl)-4-oxo-1,4-dihydro-[1,8]naphthyridine-3-carboxylic acid]: the MIC in test [1] was 0.5 µg/mL (≈ 1.31 µM); in test [2], 0.06 µg/mL (≈ 0.157 µM); in test [3], 8 µg/mL (≈ 20.9 µM); in test [4] it was 2 µg/mL (≈ 5.23 µM); in test [5] it was 8 µg/mL (≈ 20.9 µM).
With `C[C@@H]1NCCn2cc(-c3nc4c(cc3F)c(=O)c(C(=O)O)cn4C3CC3)cc21` [Compound 26, 1-Cyclopropyl-6-fluoro-7-(1S-methyl-1,2,3,4-tetrahydro-pyrrolo[1,2-a]pyrazin-7-yl)-4-oxo-1,4-dihydro-[1,8]naphthyridine-3-carboxylic acid], the MIC in test [1] turned out to be 1 µg/mL (≈ 2.62 µM); in test [2], 0.5 µg/mL (≈ 1.31 µM); in test [3], 16 µg/mL (≈ 41.8 µM); in test [4], 8 µg/mL (≈ 20.9 µM); in test [5], 8 µg/mL (≈ 20.9 µM).
As for `C[C@H]1Cn2cc(-c3nc4c(cc3F)c(=O)c(C(=O)O)cn4-c3ccc(F)cc3F)cc2CN1` [Compound 27, 1-(2,4-Difluoro-phenyl)-6-fluoro-7-(3S-methyl-1,2,3,4-tetrahydro-pyrrolo[1,2-a]pyrazin-7-yl)-4-oxo-1,4-dihydro-[1,8]naphthyridine-3-carboxylic acid], the MIC in test [1] was 1 µg/mL (≈ 2.2 µM); in test [2] it was 0.12 µg/mL (≈ 0.264 µM); in test [3], more than 16 µg/mL; in test [4], 16 µg/mL (≈ 35.2 µM); in test [5], 16 µg/mL (≈ 35.2 µM).
With `C[C@@H]1NCCn2cc(-c3nc4c(cc3F)c(=O)c(C(=O)O)cn4-c3ccc(F)cc3F)cc21` [Compound 28, 1-(2,4-Difluoro-phenyl)-6-fluoro-7-(1S-methyl-1,2,3,4-tetrahydro-pyrrolo[1,2-a]pyrazin-7-yl)-4-oxo-1,4-dihydro-[1,8]naphthyridine-3-carboxylic acid], the MIC in test [1] was 4 µg/mL (≈ 8.8 µM); in test [2] it was 1 µg/mL (≈ 2.2 µM); in test [3] it was more than 16 µg/mL; in test [4] it was 16 µg/mL (≈ 35.2 µM); in test [5], more than 16 µg/mL.
Consider `C[C@@H]1NCCn2cc(-c3c(F)cc4c(=O)c(C(=O)O)cn(C5CC5)c4c3OC(F)F)cc21` [Compound 29, 1-Cyclopropyl-8-difluoromethoxy-6-fluoro-7-(1S-methyl-1,2,3,4-tetrahydro-pyrrolo[1,2-a]pyrazin-7-yl)-4-oxo-1,4-dihydro-quinoline-3-carboxylic acid], for which the MIC is 2 µg/mL (≈ 4.47 µM) in test [1]; 0.25 µg/mL (≈ 0.559 µM) in test [2]; 16 µg/mL (≈ 35.8 µM) in test [3]; 1 µg/mL (≈ 2.24 µM) in test [4]; 8 µg/mL (≈ 17.9 µM) in test [5].
Turning to `O=C(O)c1cn(-c2ccc(F)cc2F)c2nc(-c3cc4n(c3)CCN(Cc3ccccc3)C4)c(F)cc2c1=O` [Compound 30, 7-(2-Benzyl-1,2,3,4-tetrahydro-pyrrolo[1,2-a]pyrazin-7-yl)-1-(2,4-difluoro-phenyl)-6-fluoro-4-oxo-1,4-dihydro-[1,8]naphthyridine-3-carboxylic acid], the MIC amounted to 8 µg/mL (≈ 15.1 µM) in test [1]; 2 µg/mL (≈ 3.77 µM) in test [2]; 16 µg/mL (≈ 30.2 µM) in test [3]; 8 µg/mL (≈ 15.1 µM) in test [4]; 8 µg/mL (≈ 15.1 µM) in test [5].
Take `COc1c(-c2cc3n(c2)CCN(Cc2ccccc2)C3)c(F)cc2c(=O)c(C(=O)O)cn(C3CC3)c12` [Compound 31, 7-(2-Benzyl-1,2,3,4-tetrahydro-pyrrolo[1,2-a]pyrazin-7-yl)-1-cyclopropyl-6-fluoro-8-methoxy-4-oxo-1,4-dihydro-quinoline-3-carboxylic acid]: the MIC in test [1] was 2 µg/mL (≈ 4.1 µM); in test [2], 0.25 µg/mL (≈ 0.513 µM); in test [3] it was more than 16 µg/mL; in test [4] it was 8 µg/mL (≈ 16.4 µM); in test [5] it was more than 16 µg/mL.
